Reference: patent publication US20070081991A1, “Compositions and methods for modulation of immune responses” (Pepgen Corporation, priority 2001, published 2007)
“Also recorded” adds a separate entry of the source.

Assays:
Assay type in all cases: cell-based, human
HLA-E = HLA-E stabilization assay (cell surface expression by flow cytometry); settings: K562 cells transfected with HLA-E*01033 or HLA-E*0101; overnight incubation with peptide at 26° C.
Method: Synthetic peptides, purchased from Research Genetics, were dissolved in PBS. The peptides used were B7sp ([…]) (SEC ID NO: 3), hsp60sp ([…]) (SEC ID NO: 2), B7 R5V ([…]) (SEC ID NO: 14), hsp60 V5R ([…]) ([…]), and P18I10 ([…]) (SEC ID NO: 113) (all from Research Genetics, Huntsville, Ala.). Cells and their HLA-E transfected derivatives were incubated with synthetic peptides (3-300 μM) at 26° C. for 15-20 hours in serum-free AIM-V medium (GibcoBRL, Paisley Scotland) at a concentration of 1-3.10^6 cells/ml. Cells were then harvested, washed in PBS, stained with mAbs and analyzed by flow cytometry. Cells were subjected to stress by allowing them to grow at increasing cell density.
To test whether the hsp60-derived peptides were able to bind HLA-E, stabilized HLA-E cell surface expression was stabilized with the different synthetic peptides, by overnight incubation at 26° C. For this purpose MHC class I-deficient cell lines such as 721.221 (which lack HLA-A, -B, -C, and -G, but express HLA-E and -F intracellularly), as well as K562 cells transfected with HLA-E*01033 (K562-E*01033) or HLA-E*0101 were employed. The 721.221 cells and HLA-E transfected, but not untransfected, K562 cells express low levels of HLA-E at the cell surface during normal cell growth.

[1] = system: CD94/NKG2A+ NK cell lines Nishi and NKL; assay: NK cell-mediated cytotoxicity, 2 h 51Cr release, peptide-loaded K562-E*01033 targets; settings: targets incubated overnight at 26° C. with peptide; effectors NKL and Nishi
Method: K562-E*01033 cells were incubated with the different peptides at 26° C. for 15-20 hours, and then tested in 2 h 51Cr release assays. In order to ensure that the levels of HLA-E with a protective peptide, and not the HLA-E levels as such, provided the protective capacity we kept the non-protective peptides, but omitted the B7sp, during the assays. (a) Killing of K562-E*01033 cells by NKL (left) or Nishi (right) after incubation with […], 300 mM hsp60sp, or 30 mM B7sp. 50 mM of P18I10 control peptide and hsp60sp was also included during the assays. Data from an E:T ratio of 30:1 is shown. The figure represents the mean of at least three experiments. Error bars indicate standard error of the mean. (b) Killing of K562-E*01033 cells by NKL (left panel) or Nishi (right panel) incubated over night with 30 mM 7sp, 300 mM P18I10 (pCtrl), 300 mM B7 R5V, 300 mM hsp60sp, or 300 mM hsp60 V5R. 50 mM of all peptides, except B7sp, were included during the assay. Peptide concentrations were chosen according to FIG. 5c. The figure represents the mean of at least three experiments. Error bars indicate standard error of the mean. (c) HLA-E cell surface expression by K562-E*01033 after the assay. A cold target preparation was prepared in parallel as in (a) and (b), and then stained with DX17 mAb (anti-HLA class I), followed by RPE-conjugated goat-anti-mouse IgG. One representative example out of more than 5 is shown. Note that, as in (a) and (b), 50 mM of all peptides, except for B7sp, was present during the time of the assay, explaining the lower HLA-E expression with B7sp compared to Hsp60sp, Hsp60 V5R and B7 R5V. (d) Killing of K562-E*01033 cells by Nishi after incubation for 30 min at room temperature with 0.1 mM B7sp and increasing amounts of competing peptides (hsp60sp, hsp60.4, B7 R5V and P18I10). All the peptides were kept throughout the assay
NK cell-mediated cytotoxicity was measured using a 2 hours standard ^51Cr radioisotope release assay. Briefly, target cells were incubated for 15-20 hours at 26° C. with the various peptides at concentrations ranging from 1-300 μM, and then labeled with ^51Cr. Peptides were washed away prior to setting up the assays, except in some experiments where the non-protective hsp60sp, B7 R5V and hsp60 V5R was kept throughout the assay to assure higher levels of HLA-E expression, as compared to targets incubated with the protective B7sp. In mAb blocking experiments, cells were preincubated with mouse serum, or an irrelevant isotype matched antibody to block Fc-receptors. Blocking of either target or effector cells with mAbs was performed at 4° C., and the antibodies were also included during the assays. […]

[2] = system: NKL and Nishi effector cells; assay: Killing of K562-E*01033 cells grown at increasing cell density (stress), 2 h 51Cr release; settings: peptide added in the assay; 100 mM B7sp (FIG. 6b legend)
Method: (a) Killing of K562-E*01033 cells (grown at increasing cell densities as in FIG. 3b) by NKL in a 2 h 51Cr release assay. (b) Same experimental setting as above, in the presence of 100 mM B7sp. Closed circles-high density; open squares-medium density; closed triangles-low density. (c) HLA-E expression on the K562-E*01033 cells after culture at increasing cell density.
Briefly, cell cultures were set up at the cell concentration of 0.2.10^6 cells/ml at different time points for a period of up to 6 days. At the end point, cell concentration and viability were determined by trypan blue exclusion. The expression of cell-surface HLA class I molecules was assessed by flow cytometry. Cell cultures with viability higher than 90% and at three different densities were selected as targets for cytotoxic assays. HLA-E Tetramer Production
K562-E*01033 cells grown at different densities were tested as targets in a 2 hours chromium release assay with NKL and Nishi as effector cells. […] The data also subbest that HLA-E expression induced by stress is not sufficient to protect from NK cell mediated killing. […] Therefore it is unlikely that the increased killing after cellular stress observed in some of the experiments herein is due to an increased expression of MIC-A or MIC-B. Up-regulation of other activating ligands, e.g., ULBP's, may also be responsible for the increase in killing.

[3] = system: NK cells of PB and SF mononuclear cells of RA patients; assay: NK cell cytokine production on contact with peptide stabilized K562 HLA-E*01033 cells (intracellular staining, flow cytometry); settings: K562 HLA-E*01033 stabilized with various doses of peptide; 1:1 cell ratio, 4 hours
Method: HLA-E expression was stabilized on K562 cells transfected with HLA-E*01033, by incubation with various doses of HLA-B7 signal sequence derived peptide ([…]) (SEQ ID NO: 3). PB and SF mononuclear cells (MC) of RA patients were then incubated with peptide stabilized K562 cells (1:1 cell ratio) for 4 hours in the presence of GolgiStop™. Cells were surface stained for CD3 and CD56 and thereafter stained intracellularly for IFN-gamma or TNF-alpha. Analysis was performed by flow cytometry.

VMAPRTVLL [B7sp]
HLA-E cell surface expression (stabilization) (HLA-E): stabilization of HLA-E | protection of K562-E*01033 cells from killing by NK cells [1]: clear protection from killing | rescue of stressed (high density) K562-E*01033 cells from killing [2]: could be rescued from killing by addition of B7sp peptide; also recorded: stressed cells were protected simply by adding the protective B7sp peptide | NK cell IFN-gamma production [3]: sufficient to inhibit NK cell IFN-gamma and TNF-alpha cytokine production | NK cell TNF-alpha production [3]: sufficient to inhibit NK cell IFN-gamma and TNF-alpha cytokine production
